From patent publication US6800618B2, “Chemosensitizing agents against chloroquine resistant plasmodium falciparum and methods of making and using thereof” (The United States of America as represented by the …, priority 2001, dated 2004)

How the values were obtained:
TM91C235 cells = assay: In vitro reversal activity (cell growth suppression, 3H-hypoxanthine incorporation) in TM91C235 cells; format: cell-based, Plasmodium falciparum; settings: for Control % sup: test compounds only
Text: For quantitative in vitro drug susceptibility testing, two well characterized P. falciparum clones, W2 and D6, were used. See Oduola et al. (1988) Exp Parasitol 66:86-95, which is herein incorporated by reference. W2 is a clone of the Indochina I isolate and is resistant to chloroquine and pyrimethamine, but susceptible to mefloquine. D6 is a clone from the Sierra I/UNC isolate and is susceptible to chloroquine and pyrimethamine, but has reduced susceptibilities to mefloquine and halofantrine. TM91C235 was isolates from Thailand and is highly resistant to mefloquine, chloroquine, and quinine.
The in vitro antimalarial drug susceptibility assay used is a modification of the procedures first published by Desjardins, et al. with modifications developed by Milhous, et al. See Desjardins, R. E., et al. (1979) Antimicrobial Agents Chemother 16:710-718; and Milhous, et al. (1985) Antimicrobial Agents Chemother 27:525-530, which are herein incorporated by reference. In brief, the assay is based on the incorporation of radiolabeled hypoxanthine by the parasites and inhibition of isotope incorporation is attributed to activity of known or candidate antimalarial drugs. For each assay, proven antimalarials, such as chloroquine, mefloquine, quinine, artemisinin, pyrimethamine and sulfadoxine, were used as controls. The incubation period was 66 hours and the starting parasitemia was 0.2% with a 1% hematocrit. The media used was RPMI-1640 culture media with no folate or p-aminobenzoic acid (PABA). Albumax may be used instead of 10% normal heat inactivated human plasma.
If a candidate compound was tested without any prior knowledge of its activity or solubility, the compound was dissolved directly in dimethylsulfoxide (DMSO) and diluted 400 fold with complete culture media. These unknown compounds were normally started at a highest concentration of about 50,000 ng/ml. The compounds were then diluted 2-fold, 11 times, to give a concentration range of about 1,048-fold. These dilutions were performed automatically by a Biomek 1000 or 2000 Liquid Handling System into 96-well microtiter plates.
(§1) 25 μl of each diluted candidate compound was then transferred to test plates, 200 μl of parasitized erythrocytes (0.2% parasitemia and 1% hematocrit) were added, and incubated at 37° C. in a controlled environment of 5% CO2, 5% O2 and 90% N2. After 42 hours, 25 μl of ^3H-hypoxanthine was added and the plates were incubated for an additional 24 hours. At the end of the 66 hour incubation period, the plates were frozen at −70° C. to lyse the red cells and later thawed and harvested onto glass fiber filter mats by using a 96-well cell harvester. The filter mats were then counted in a scintillation counter and the data was analyzed.
Each of these test compounds were tested under three different concentrations, 5000, 500, and 50 ng/ml, in the presence of 10 ng/ml of chloroquine and 5 ng/ml of mefloquine. […] Thus, the compounds of the present invention may be used to treat, prevent or inhibit drug resistant malaria.

TM91C235 = assay: FIC index in TM91C235 isolate; format: cell-based, Plasmodium falciparum; set-up: key: 1.0 = additive; <1.0 = synergy; >1.0 = antagonism; settings: isolate from Southeast Asia (Thailand); same method as for W-2
Experimental: Fifty percent inhibitory concentrations (IC50s) were determined for each candidate compound alone and for candidate compounds in fixed combinations of their respective IC50s (1:1, 1:3, 3:1). […] The FIC is the actual IC50 of one compound in the presence of a second compound but is expressed as a fraction of its IC50 when used alone. This index is a mathematical representation of the isobologram such that an FIC index of 1.0 represents the line of additive on the isobologram. An FIC index of less than 1.0 represents synergy or potentiation and an FIC index of greater than 1.0 represents antagonism.
The same assay method described above for W-2 was used except that the strains used were isolated from Thailand, Brazil, and Peru, respectively.

[1] = system: Plasmodium falciparum W2 clone; assay: FIC index with chloroquine (isobologram analysis) in W2 clone; format: cell-based; set-up: key: 1.0 = additive; <1.0 = synergy; >1.0 = antagonism; settings: 1:1 combination of drug and chloroquine; chloroquine-resistant W2 clone
Experimental: In brief, the assay is based on the incorporation of radiolabeled hypoxanthine by the parasites and inhibition of isotope incorporation is attributed to activity of known or candidate antimalarial drugs. For each assay, proven antimalarials, such as chloroquine, mefloquine, quinine, artemisinin, pyrimethamine and sulfadoxine, were used as controls. The incubation period was 66 hours and the starting parasitemia was 0.2% with a 1% hematocrit. […] Albumax may be used instead of 10% normal heat inactivated human plasma.
as §1
The FIC is the actual IC50 of one compound in the presence of a second compound but is expressed as a fraction of its IC50 when used alone. This index is a mathematical representation of the isobologram such that an FIC index of 1.0 represents the line of additive on the isobologram. An FIC index of less than 1.0 represents synergy or potentiation and an FIC index of greater than 1.0 represents antagonism.
In the isobologram graphs as shown in FIGS. 1-3, the x-axis is fractional inhibitory concentration (FIC) of chloroquine and the y-axis is FIC of chemosensitizing agent. The FIC is the actual IC50 of one drug in the presence of the second drug but is expressed as a fraction of its IC50 when used alone. If the isobologram graph is a straight line, it represents an additive effect of the two drugs. If the graph forms a concave curve below the line, it indicates synergy or potentiation of the combination. Below the line means synergy or potentiation and above the line means antagonism.

RCS = assay: FIC index in RCS isolate; format: cell-based, Plasmodium falciparum; set-up: key: 1.0 = additive; <1.0 synergy; >1.0 antagonism; settings: isolate from Brazil; same method as for W-2
Experimental: (§2) Fifty percent inhibitory concentrations (IC50s) were determined for each candidate compound alone and for candidate compounds in fixed combinations of their respective IC50s (1:1, 1:3, 3:1). […] See Elion, G. V., et al. (1954) J Biol Chem 208:477-488, which is herein incorporated by reference. The FIC is the actual IC50 of one compound in the presence of a second compound but is expressed as a fraction of its IC50 when used alone. This index is a mathematical representation of the isobologram such that an FIC index of 1.0 represents the line of additive on the isobologram. An FIC index of less than 1.0 represents synergy or potentiation and an FIC index of greater than 1.0 represents antagonism.
(§3) Parasites from different regions responded differently to the compounds of the present invention. The same assay method described above for W-2 was used except that the strains used were isolated from Thailand, Brazil, and Peru, respectively.

Peruvian PC49 = assay: FIC index in Peruvian PC49 isolate; format: cell-based, Plasmodium falciparum; set-up: key: 1.0 = additive; <1.0 synergy; >1.0 antagonism; settings: isolate from South America (Peru); same method as for W-2
Experimental: as §2, §3

[2] = test compound 50 ng/ml combined with 5 ng/ml mefloquine
[3] = test compound 50 ng/ml combined with 10 ng/ml chloroquine
[4] = test compound 500 ng/ml combined with 5 ng/ml mefloquine
[5] = test compound 500 ng/ml combined with 10 ng/ml chloroquine
[6] = test compound 5000 ng/ml combined with 5 ng/ml mefloquine
[7] = test compound 5000 ng/ml combined with 10 ng/ml chloroquine

`OC(c1cc(C(F)(F)F)nc2c(C(F)(F)F)cccc12)C1CCCCN1` (centres unmarked) [mefloquine, reference compound] was tested, and the “cell growth inhibition of TM91C235 cells by drug alone” value (TM91C235 cells; 5 ng/ml of mefloquine alone) was “did not inhibit the cell growth”.

With `CCN(CC)CCCCN(c1ccccc1)c1ccccc1` [7s, N,N-Diethyl-N′,N′-diphenyl-butane-1,4-diamine] the “FIC index TM91C235” value (TM91C235) was 0.3, the “FIC (fractional inhibitory concentration) index” value [1] was 0.48 and the “FIC index RCS” value (RCS) was 0.33.

With `c1ccc2c(c1)CCc1ccccc1N2CCCCCN1CCCC1` [7v, 5-(5-Pyrrolidin-1-yl-pentyl)iminodibenzyl] the “FIC index TM91C235” value (TM91C235) was 0.55, the “FIC index Peruvian PC49” value (Peruvian PC49) was 0.59 and the “FIC (fractional inhibitory concentration) index” value [1] was 0.48. The “FIC index RCS” value (RCS) was 0.37.

`c1ccc2c(c1)CCc1ccccc1N2CCCCN1CCOCC1` [7o, 5-(4-Morpholin-4-yl-butyl)iminodibenzyl] was tested, and the “FIC index TM91C235” value (TM91C235) was 0.54, the “FIC index Peruvian PC49” value (Peruvian PC49) was 0.78 and the “FIC (fractional inhibitory concentration) index” value [1] was 0.31. For the same compound, the “FIC index RCS” value (RCS) was 0.89.

In the case of `c1ccc2c(c1)CCc1ccccc1N2CCCCCCN1CCCC1` [7x, 5-(6-Pyrrolidin-1-yl-hexyl)iminodibenzyl], the “FIC index TM91C235” value (TM91C235) is reported as 0.54, the “FIC index Peruvian PC49” value (Peruvian PC49) is reported as 0.92 and the “FIC (fractional inhibitory concentration) index” value [1] is reported as 0.57. For the same compound, the “FIC index RCS” value (RCS) was 0.60.

In the case of `CCN(CC)CCCCCCN1c2ccccc2CCc2ccccc21` [7w, 5-(6-Diethylaminohexyl)iminodibenzyl], the “FIC index TM91C235” value (TM91C235) is reported as 0.59, the “FIC (fractional inhibitory concentration) index” value [1] is reported as 0.48 and the “FIC index RCS” value (RCS) is reported as 0.72.

With `CN(C)CCCCN1c2ccccc2Sc2ccccc21` [7a, 10-(4-Dimethylaminobutyl)phenothiazine] the “FIC index TM91C235” value (TM91C235) was 0.28, the “Mefloquine % SUP” value (TM91C235 cells; [2]) was 2% and the Chloroquine % sup (TM91C235 cells; [3]) was 30%. The “Mefloquine % SUP” value (TM91C235 cells; [4]) was 31%, the Chloroquine % sup (TM91C235 cells; [5]) was 97% and the “Mefloquine % SUP” value (TM91C235 cells; [6]) was 92%. For the same compound, the Chloroquine % sup (TM91C235 cells; [7]) was 100%, the Control % sup (TM91C235 cells; 50 ng/ml) was 17% and the Control % sup (TM91C235 cells; 500 ng/ml) was 27%. For the same compound, the Control % sup (TM91C235 cells; 5000 ng/ml) was 92%, the “FIC (fractional inhibitory concentration) index” value [1] was 0.23 and the “FIC index RCS” value (RCS) was 0.51.

`c1ccc(CN(CCCCN2c3ccccc3CCc3ccccc32)Cc2ccccc2)cc1` [7l, 5-(4-Dibenzylaminobutyl)iminodibenzyl] was tested, and the “Mefloquine % SUP” value (TM91C235 cells; [2]) was 14%, the Chloroquine % sup (TM91C235 cells; [3]) was 6% and the “Mefloquine % SUP” value (TM91C235 cells; [4]) was 22%. The Chloroquine % sup (TM91C235 cells; [5]) was 8%, the “Mefloquine % SUP” value (TM91C235 cells; [6]) was 19% and the Chloroquine % sup (TM91C235 cells; [7]) was 13%. For the same compound, the Control % sup (TM91C235 cells; 50 ng/ml) was 11%, the Control % sup (TM91C235 cells; 500 ng/ml) was 17% and the Control % sup (TM91C235 cells; 5000 ng/ml) was 13%.

For `c1ccc(CN(CCCCN2c3ccccc3Sc3ccccc32)Cc2ccccc2)cc1` [7d, 10-(4-Dibenzylaminobutyl)phenothiazine], the “restoring the drug sensitivity of the mefloquine resistant cell line” value (TM91C235 cells; coadministration with mefloquine) was “not very active”, the “Mefloquine % SUP” value (TM91C235 cells; [2]) was 0% and the Chloroquine % sup (TM91C235 cells; [3]) was 12%. For the same compound, the “Mefloquine % SUP” value (TM91C235 cells; [4]) was 3%, the Chloroquine % sup (TM91C235 cells; [5]) was 16% and the “Mefloquine % SUP” value (TM91C235 cells; [6]) was 9%. For the same compound, the Chloroquine % sup (TM91C235 cells; [7]) was 25%, the Control % sup (TM91C235 cells; 50 ng/ml) was 7% and the Control % sup (TM91C235 cells; 500 ng/ml) was 10%. The Control % sup (TM91C235 cells; 5000 ng/ml) was 22%.
